Laboratory results: ChEMBL document CHEMBL5053545, “Iterative Structure-Based Optimization of Short Peptides Targeting the Bacterial Sliding Clamp” (J Med Chem, 2021)
pIC50, pKd: −log10 of the molar value. The source made the active and inactive calls. The calls are words filed in the database; no cut-off is given here. *1 amine or outer side, *2 acyl side, *3 side chain or, on linkers, in order; H or OH if unused. Where a SMILES comes first, the peptide text is derived from it. [ ]: non-standard residue; d: D form. The star is where a group is joined. Acryloyl(3-(3-pyridyl),E) = O=C(/C=C/c1cccnc1)*; Phe(3,4-Cl2) = N[C@@H](Cc1ccc(Cl)c(Cl)c1)C(=O)O; Phe(3,4-F2) = N[C@@H](Cc1ccc(F)c(F)c1)C(=O)O; Acetyl(1-naphthyl) = O=C(Cc1cccc2ccccc12)*; Oic = O=C(O)[C@@H]1C[C@@H]2CCCC[C@@H]2N1; Cinnamoyl(4-F) = O=C(/C=C/c1ccc(F)cc1)*; Hydrocinnamoyl = O=C(CCc1ccccc1)*; NH(4-MeO-phenyl) = COc1ccc(N*)cc1; X2 = O=C(CN(Cc1ccccn1)[*:1])[*:2]; X3 = CN(C)/C(=N\CC(=O)*)N1CCOCC1; NFurfurylGly = O=C(O)CNCc1ccco1; Cha = N[C@@H](CC1CCCCC1)C(=O)O; NMeD = CN[C@@H](CC(=O)O)C(=O)O; X5 = CN(C)C(=NCC(=O)*)N(C)C; X1 = O=C(/C=C/c1ccccc1)*; CO = O=C([*:1])[*:2]; Sar = CNCC(=O)O

Key:
[1] = Binding affinity to Escherichia coli sliding clamp assessed as dissociation constant by ITC analysis
Escherichia coli [2] = experiment: Binding affinity to Escherichia coli sliding clamp assessed as association rate constant by ITC analysis
[3] = Inhibition of SC-dependent DNA replication in Escherichia coli using pU118 DNA as substrate preincubated for 10 mins followed by substrate addition and measured after 6 mins by PAGE electrophoresis
Escherichia coli [4] = experiment: Binding affinity to Escherichia coli sliding clamp assessed as gibbs free energy change by ITC analysis
Escherichia coli [5] = experiment: Binding affinity to Escherichia coli sliding clamp assessed as dissociation rate constant by ITC analysis
Escherichia coli [6] = experiment: Antimicrobial activity against Escherichia coli D22 at 128 ug/ml incubated 18 to 24 hrs by broth microdilution method; assay type: functional, organism-based; settings: dose 128.0 µg/ml, time 18-24 hrs

Compound	K (Escherichia coli [2])	pIC50 [3]	deltaG (Escherichia coli [4])	K (Escherichia coli [5])	pKd [1]	Activity (Escherichia coli [6])
CC(=O)N[C@@H](CCC(N)=O)C(=O)N[C@@H](CC1CCCCC1)C(=O)N[C@@H](CC(=O)O)C(=O)N[C@@H](CC(C)C)C(=O)N1[C@H](C(=O)N[C@@H](Cc2ccc(Cl)c(Cl)c2)C(=O)O)C[C@@H]2CCCC[C@@H]21 (Ac-Q[Cha]DL[Oic][Phe(3,4-Cl2)]-OH)	6 10^4/M/s	6.82	-10.1 kcal/mol	2.3 10^-3/s	7.41	inactive
CC(C)C[C@H](NC(=O)[C@H](CC(=O)O)NC(=O)[C@H](CC1CCCCC1)NC(=O)[C@H](CCC(N)=O)NC(=O)CNCc1ccco1)C(=O)N[C@@H](Cc1ccccc1)C(=O)O (H-[NFurfurylGly]Q[Cha]DLF-OH)	4.8 10^4/M/s	–	-9.2 kcal/mol	8.6 10^-3/s	6.77	–
CC(C)C[C@H](NC(=O)[C@H](CC(=O)O)NC(=O)[C@H](CC1CCCCC1)NC(=O)[C@H](CCC(N)=O)NC(=O)/C=C/c1ccccc1)C(=O)N[C@@H](Cc1ccccc1)C(=O)O (X1-Q[Cha]DLF-OH)	4.6 10^4/M/s	–	-9.4 kcal/mol	6.5 10^-3/s	6.89	inactive
CC(C)C[C@H](NC(=O)[C@@H]1CCCN1C(=O)[C@H](CC(C)C)NC(=O)[C@H](CC(=O)O)NC(=O)[C@H](CC1CCCCC1)NC(=O)[C@H](CCC(N)=O)NC(=O)/C=C/c1ccccc1)C(=O)O (X1-Q[Cha]DLPL-OH)	6 10^4/M/s	–	-9.4 kcal/mol	8 10^-3/s	6.88	–
CC(C)C[C@H](NC(=O)[C@H](CC(=O)O)NC(=O)[C@H](CC1CCCCC1)NC(=O)[C@H](CCC(N)=O)NC(=O)C/N=C(\N(C)C)N1CCOCC1)C(=O)N[C@@H](Cc1ccccc1)C(=O)O (X3-Q[Cha]DLF-OH)	3.4 10^4/M/s	–	-9 kcal/mol	1 10^-2/s	6.56	–
CC(C)C[C@H](NC(=O)[C@H](CC(=O)O)NC(=O)[C@H](CC1CCCCC1)NC(=O)[C@H](CCC(N)=O)NC(=O)CN=C(N(C)C)N(C)C)C(=O)N[C@@H](Cc1ccccc1)C(=O)O (X5-Q[Cha]DLF-OH)	3.4 10^4/M/s	–	-8.7 kcal/mol	1.1 10^-2/s	6.45	–
CC(C)C[C@H](NC(=O)[C@H](CC(=O)O)NC(=O)[C@H](CC1CCCCC1)NC(=O)[C@H](CCC(N)=O)NC(=O)Cc1cccc2ccccc12)C(=O)N[C@@H](Cc1ccccc1)C(=O)O ({Acetyl(1-naphthyl)}-Q[Cha]DLF-OH)	6.5 10^4/M/s	–	-9.6 kcal/mol	5.7 10^-3/s	7.05	–
CC(C)C[C@H](NC(=O)[C@H](CC(=O)O)NC(=O)[C@H](CC1CCCCC1)NC(=O)[C@H](CCC(N)=O)NC(=O)/C=C/c1cccnc1)C(=O)N[C@@H](Cc1ccccc1)C(=O)O ({Acryloyl(3-(3-pyridyl),E)}-Q[Cha]DLF-OH)	4.6 10^4/M/s	–	-9.3 kcal/mol	7.4 10^-3/s	6.81	inactive
CC(C)C[C@H](NC(=O)[C@H](CC(=O)O)N(C)C(=O)[C@H](CC1CCCCC1)NC(=O)[C@H](CCC(N)=O)NC(=O)/C=C/c1cccnc1)C(=O)N1CCC[C@H]1C(=O)N[C@@H](Cc1ccccc1)C(=O)O ({Acryloyl(3-(3-pyridyl),E)}-Q[Cha][NMeD]LPF-OH)	1.4 10^5/M/s	–	-10.2 kcal/mol	5.2 10^-3/s	7.46	inactive
CC(C)C[C@H](NC(=O)[C@H](CC(=O)O)N(C)C(=O)[C@H](CC1CCCCC1)NC(=O)[C@H](CCC(N)=O)NC(=O)/C=C/c1cccnc1)C(=O)N[C@@H](Cc1ccc(Cl)c(Cl)c1)C(=O)O ({Acryloyl(3-(3-pyridyl),E)}-Q[Cha][NMeD]L[Phe(3,4-Cl2)]-OH)	1.1 10^5/M/s	–	-10.1 kcal/mol	5.5 10^-3/s	7.34	inactive
CC(C)C[C@H](NC(=O)[C@H](CC(=O)O)NC(=O)[C@H](CC1CCCCC1)NC(=O)[C@H](CCC(N)=O)NC(=O)/C=C/c1ccc(F)cc1)C(=O)N[C@@H](Cc1ccccc1)C(=O)O ({Cinnamoyl(4-F)}-Q[Cha]DLF-OH)	4.6 10^4/M/s	–	-9.3 kcal/mol	6.3 10^-3/s	6.84	–
COc1ccc(NC(=O)N[C@@H](CCC(N)=O)C(=O)N[C@@H](CC2CCCCC2)C(=O)N[C@@H](CC(=O)O)C(=O)N[C@@H](CC(C)C)C(=O)N[C@@H](Cc2ccccc2)C(=O)O)cc1 ({NH(4-MeO-phenyl)-CO}-Q[Cha]DLF-OH)	4 10^4/M/s	–	-9.8 kcal/mol	2.8 10^-3/s	7.14	–
COc1ccc(NC(=O)N[C@@H](CCC(N)=O)C(=O)N[C@@H](CC2CCCCC2)C(=O)N(C)[C@@H](CC(=O)O)C(=O)N[C@@H](CC(C)C)C(=O)N[C@@H](Cc2ccc(Cl)c(Cl)c2)C(=O)O)cc1 ({NH(4-MeO-phenyl)-CO}-Q[Cha][NMeD]L[Phe(3,4-Cl2)]-OH)	4.2 10^4/M/s	–	-9 kcal/mol	1.1 10^-3/s	6.58	–

More lines, main results first:

K (Escherichia coli [2])	pIC50 [3]	deltaG (Escherichia coli [4])	K (Escherichia coli [5])	Compound	pKd [1]	Activity (Escherichia coli [6])
4 10^4/M/s	5.49	-9.2 kcal/mol	7.4 10^-3/s	CC(=O)N[C@@H](CCC(N)=O)C(=O)N[C@@H](CC1CCCCC1)C(=O)N[C@@H](CC(=O)O)C(=O)N[C@@H](CC(C)C)C(=O)N[C@@H](Cc1ccccc1)C(=O)O (Ac-Q[Cha]DLF-OH)	6.71	–
4 10^4/M/s	–	-8.5 kcal/mol	2.1 10^-2/s	CC(=O)N[C@@H](CCC(N)=O)C(=O)N[C@@H](CC1CCCCC1)C(=O)N[C@@H](CC(=O)O)C(=O)N[C@@H](CC(C)C)C(=O)N(C)CC(=O)N[C@@H](CC(C)C)C(=O)O (Ac-Q[Cha]DL[Sar]L-OH)	6.23	inactive
3.4 10^4/M/s	–	-9.2 kcal/mol	5.7 10^-3/s	CC(C)C[C@H](NC(=O)[C@H](CC(=O)O)NC(=O)[C@H](CC1CCCCC1)NC(=O)[C@H](CCC(N)=O)NC(=O)CNCc1ccccn1)C(=O)N[C@@H](Cc1ccccc1)C(=O)O (H-[X2]Q[Cha]DLF-OH)	6.76	–
5.5 10^4/M/s	–	-9.1 kcal/mol	6.7 10^-3/s	CC(C)C[C@H](NC(=O)[C@H](CC(=O)O)NC(=O)[C@H](CC1CCCCC1)NC(=O)[C@H](CCC(N)=O)NC(=O)CCc1ccccc1)C(=O)N[C@@H](Cc1ccccc1)C(=O)O (Hydrocinnamoyl-Q[Cha]DLF-OH)	6.91	–
6.3 10^4/M/s	–	-9.2 kcal/mol	1.1 10^-2/s	CC(C)C[C@H](NC(=O)[C@@H]1CCCN1C(=O)[C@H](CC(C)C)NC(=O)[C@H](CC(=O)O)N(C)C(=O)[C@H](CC1CCCCC1)NC(=O)[C@H](CCC(N)=O)NC(=O)/C=C/c1cccnc1)C(=O)O ({Acryloyl(3-(3-pyridyl),E)}-Q[Cha][NMeD]LPL-OH)	6.75	–
4.7 10^4/M/s	–	-9.5 kcal/mol	5.5 10^-3/s	CC(C)C[C@H](NC(=O)[C@H](CC(=O)O)N(C)C(=O)[C@H](CC1CCCCC1)NC(=O)[C@H](CCC(N)=O)NC(=O)/C=C/c1cccnc1)C(=O)N1[C@H](C(=O)N[C@@H](Cc2ccccc2)C(=O)O)C[C@@H]2CCCC[C@@H]21 ({Acryloyl(3-(3-pyridyl),E)}-Q[Cha][NMeD]L[Oic]F-OH)	6.93	–
5.1 10^4/M/s	–	-9.6 kcal/mol	5.7 10^-3/s	CC(C)C[C@H](NC(=O)[C@H](CC(=O)O)N(C)C(=O)[C@H](CC1CCCCC1)NC(=O)[C@H](CCC(N)=O)NC(=O)/C=C/c1ccc(F)cc1)C(=O)N[C@@H](Cc1ccc(F)c(F)c1)C(=O)O ({Cinnamoyl(4-F)}-Q[Cha][NMeD]L[Phe(3,4-F2)]-OH)	7.00	–
